Assay results published in the NIST ThermoML archive (doi:10.1021/je2009413).

What was measured:
[1] = mean ionic activity coefficient (dimensionless); mn = molality of the nth substance listed, in mol/kg; settings: 298.15 K, Liquid, Isopiestic method
[2] = osmotic coefficient (dimensionless); mn = molality of the nth substance listed, in mol/kg; settings: 298.15 K, Liquid, isopiestic method

CCC(C)[N+](CC)(CC)CC.[I-] (stereo unspecified) [N,N,N-triethyl-2-butanaminium iodide] + O
Settings | mean ionic activity coefficient, [1] | osmotic coefficient, [2]
m1 = 0.0355 | 0.7342 | 0.868
m1 = 0.0419 | 0.7111 | 0.857
m1 = 0.0466 | 0.6955 | 0.849
m1 = 0.0596 | 0.6571 | 0.833
m1 = 0.0659 | 0.6405 | 0.827
m1 = 0.0701 | 0.6301 | 0.82
m1 = 0.078 | 0.6116 | 0.814
m1 = 0.0914 | 0.5833 | 0.801
m1 = 0.0985 | 0.5696 | 0.794
m1 = 0.1038 | 0.5599 | 0.79
m1 = 0.1115 | 0.5465 | 0.784
m1 = 0.1743 | 0.4605 | 0.728
m1 = 0.1756 | 0.459 | 0.728
m1 = 0.2078 | 0.4262 | 0.704
m1 = 0.2438 | 0.3955 | 0.676
m1 = 0.248 | 0.3922 | 0.673
m1 = 0.2939 | 0.3602 | 0.651
m1 = 0.338 | 0.3347 | 0.621
m1 = 0.3717 | 0.3178 | 0.616
m1 = 0.3901 | 0.3094 | 0.602
m1 = 0.431 | 0.2924 | 0.578
m1 = 0.4744 | 0.2766 | 0.57
m1 = 0.5204 | 0.2619 | 0.554
m1 = 0.5785 | 0.2458 | 0.538
m1 = 0.624 | 0.2347 | 0.525
m1 = 0.665 | 0.2257 | 0.52
m1 = 0.6928 | 0.22 | 0.508
m1 = 0.8 | 0.2011 | 0.49
m1 = 0.847 | 0.194 | 0.486
m1 = 0.9185 | 0.1842 | 0.48
m1 = 0.978 | 0.177 | 0.468
m1 = 1.091 | 0.1651 | 0.456
m1 = 1.19 | 0.1562 | 0.445
m1 = 1.306 | 0.1471 | 0.433
m1 = 1.407 | 0.1402 | 0.427
m1 = 1.545 | 0.132 | 0.413
m1 = 1.715 | 0.1234 | 0.411
m1 = 1.891 | 0.1159 | 0.407
m1 = 1.928 | 0.1144 | 0.412
m1 = 1.988 | 0.1122 | 0.407
m1 = 2.019 | 0.111 | 0.408
m1 = 2.09 | 0.1086 | 0.417
m1 = 2.172 | 0.1059 | 0.413
m1 = 2.413 | 0.0987 | 0.43

CC[N+](CC)(CC)CC(C)C.[I-] [N,N,N-triethyl-2-methyl-1-propanaminium iodide] + O
Settings | mean ionic activity coefficient, [1] | osmotic coefficient, [2]
m1 = 0.0366 | 0.7118 | 0.841
m1 = 0.0433 | 0.6866 | 0.828
m1 = 0.0483 | 0.6687 | 0.819
m1 = 0.0624 | 0.6257 | 0.795
m1 = 0.0695 | 0.6067 | 0.784
m1 = 0.0739 | 0.5963 | 0.778
m1 = 0.0824 | 0.5764 | 0.769
m1 = 0.0975 | 0.5439 | 0.751
m1 = 0.1055 | 0.5296 | 0.741
m1 = 0.1113 | 0.5191 | 0.736
m1 = 0.12 | 0.5042 | 0.729
m1 = 0.1872 | 0.4149 | 0.678
m1 = 0.1889 | 0.4131 | 0.677
m1 = 0.2234 | 0.3799 | 0.655
m1 = 0.2618 | 0.3493 | 0.63
m1 = 0.265 | 0.347 | 0.63
m1 = 0.3183 | 0.3131 | 0.601
m1 = 0.3626 | 0.2901 | 0.579
m1 = 0.4063 | 0.2708 | 0.563
m1 = 0.4229 | 0.2643 | 0.555
m1 = 0.4602 | 0.2508 | 0.541
m1 = 0.5128 | 0.2343 | 0.527
m1 = 0.5607 | 0.2214 | 0.514
m1 = 0.6289 | 0.2056 | 0.495
m1 = 0.6797 | 0.1956 | 0.482
m1 = 0.737 | 0.1857 | 0.469
m1 = 0.749 | 0.1837 | 0.47
m1 = 0.8695 | 0.1669 | 0.451
m1 = 0.9418 | 0.1587 | 0.437
m1 = 1.034 | 0.1496 | 0.426
m1 = 1.1 | 0.144 | 0.416
m1 = 1.232 | 0.1343 | 0.404
m1 = 1.352 | 0.1271 | 0.392
m1 = 1.465 | 0.1213 | 0.386
m1 = 1.595 | 0.1156 | 0.377
m1 = 1.703 | 0.1115 | 0.375
m1 = 1.891 | 0.1055 | 0.373
m1 = 2.044 | 0.1013 | 0.377
m1 = 2.096 | 0.0994 | 0.379
m1 = 2.142 | 0.0984 | 0.378
m1 = 2.163 | 0.0981 | 0.381
m1 = 2.254 | 0.0955 | 0.387
m1 = 2.308 | 0.0941 | 0.389
m1 = 2.528 | 0.0917 | 0.41
